System: full skin models
Assay type: cell-based, human
Method: Additionally, the influence on the cell viability and the release of lactate dehydrogenase (LDH) was examined over the incubation time. Disruptions of the cell membranes can be measured by the release of the cytosolic enzyme LDH and be evaluated as a marker for cellular necrosis. As the biocompatibility of the material is determined by further cellular and molecular factors, the analysis of the cellular interleukin release allows the conclusion on e.g. pro-inflammatory effects of the substances, which would not be possible to be detected by sole cytotoxicity. Such interleukins are interleukins 1α, 6 or 8, which are involved in coordinating the cellular proliferation, cell migration and possible inflammatory processes. Such a method is described in, for example, Wiegand C, Hipler UC. Evaluation of biocompatibility and cytotoxicity using keratinocyte and fibroblast cultures. Skin Pharmacol Physiol 2009; 22:74-82; Wiegand C, Winter D, Hipler UC. Molecular-weight-dependent toxic effects of chitosans on the human keratinocyte cell line HaCaT. Skin Pharmacol Physiol. 2010;23(3):164-70.
The spore suspensions and the solutions of sertaconazol, ciclopiroxolamin and terbinafin were prepared as in Example 1, wherein the respective test concentrations were obtained by diluting these solutions in ultrapure water (WFI; Fresenius Kabi) instead of SGB (Merck). Full skin models were produced as previously described [Reddersen K, Wiegand C, Elsner P, Hipler UC. Three-dimensional human skin model infected with Staphylococcus aureus as a tool for evaluation of bioactivity and biocompatibility of antiseptics. Int J Antimicrob Agents. 2019; 54(3):283-291; Wiegand C, Fink S, Beier O, Horn K, Pfuch A, Schimanski A, Grünler B, Hipler UC, Elsner P. Dose- and Time-Dependent Cellular Effects of Cold Atmospheric Pressure Plasma Evaluated in 3D Skin Models. Skin Pharmacol Physiol. 2016;29(5):257-265].Particularly, normal human dermal fibroblasts (NHDF; Lot 1060702.1, Promocell) and normal human epidermal keratinocytes (NHEK; Lot 9100102, Promocell) were used. Fibroblasts were cultivated in Dulbecco's modified eagle medium (DMEM; Lot MC09049P, Amimed), with 2% foetal calf serum (Lot P160509; PAN), 5 ng/mL hFGF (Lot 0329586; novoprotein) and 5 µg/ml Insulin (Lot H07443P, AMIMED) at 37°C and a 5% CO2 atmosphere. Keratinocytes were cultivated in keratinocyte medium (KBM, Lot 446M063, Promocell) at 37°C and a 5% CO2 atmosphere. The cultivation was performed over 7 days in 75 cm^2 cell culture flasks (Greiner Bio-One). The cells were subsequently detached with Trypsin-EDTA (Lot 2091326; Gibco) and dissolved in the respective medium. For producing the dermis equivalent, fibroblasts were cultivated in 12-well inserts (Greiner bio-one) with DMEM (Lot MC09049P, Amimed) + 10% foetal calf serum (Lot P160509, PAN) + 1% Gentamycin (Lot 2027100, Gibco) + 150 µg/ml ascorbic acid (Lot BCBS1081V, Sigma) for 3 weeks at […] and 5 % CO2. The medium was changed all 2-3 days. Before seeding the keratinocytes for producing the […], the medium surrounding the insert was completely removed and the dermis upper layer was coated with fibronectin (50 µg/mL; Lot 435P078, Promocell). After 30 min of incubation of the dermis equivalent with fibronectin, the seeding of the keratinocytes was performed with 2 × 10^5 cells / insert in KBM (Lot 446M063, Promocell) + 5% FKS (Lot P160509, PAN) + 1% Gentamycin (Lot 2027100, Gibco). Subsequently, the skin models were incubated for 45 min in the incubator before the models were flooded with KBM + 5% FKS + 1% Gentamycin. The skin models were cultivated for 7 days by submersion in the medium with decreasing foetal calf serum concentration (5 %, 2 %, 0 %). The medium was changed all 2-3 days. After the cultivation by submersion, the skin models were further cultivated for 12 days at the air-medium interface (airlift cultivation). […]

CCCCCCCCCCCCOS(=O)(=O)[O-].[Na+] [SDS]
cell viability: approximately 20%
